Reference: ChEMBL document CHEMBL1149290, “Discovery of tetralin carboxamide growth hormone secretagogue receptor antagonists via scaffold manipulation” (J Med Chem, 2004)

Tests used:
[1] = Clearance in rat; format: ADME, organism-based; conditions: in vivo
[2] = target: Voltage-gated inwardly rectifying potassium channel KCNH2 (Homo sapiens, UniProt Q12809); assay: Inhibition of hERG receptor; format: toxicity
[3] = Inhibition of histaminergic receptor
[4] = target: Muscarinic acetylcholine receptor; assay: Inhibition of muscarinic receptor; format: protein assay, Homo sapiens
[5] = Oral bioavailability in rat; format: ADME, organism-based; conditions: in vivo
[6] = Inhibition of adrenergic receptor; set-up: species or system Homo sapiens
[7] = Inhibition of dopaminergic receptor; set-up: species or system Homo sapiens
[8] = target: Growth hormone secretagogue receptor type 1 (Homo sapiens, UniProt Q92847); assay: Binding affinity to GHSR
Chain of Growth hormone secretagogue receptor type 1 (Q92847 whole entry): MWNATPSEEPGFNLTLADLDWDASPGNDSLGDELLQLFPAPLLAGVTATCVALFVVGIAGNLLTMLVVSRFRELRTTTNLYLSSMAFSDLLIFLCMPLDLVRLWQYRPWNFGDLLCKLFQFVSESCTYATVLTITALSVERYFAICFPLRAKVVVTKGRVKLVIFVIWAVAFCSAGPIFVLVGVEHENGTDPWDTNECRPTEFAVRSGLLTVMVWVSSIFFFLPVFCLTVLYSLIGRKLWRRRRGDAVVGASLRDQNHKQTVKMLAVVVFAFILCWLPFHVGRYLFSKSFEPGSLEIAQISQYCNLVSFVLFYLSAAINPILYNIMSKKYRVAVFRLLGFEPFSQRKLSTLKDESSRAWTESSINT

Chain of Voltage-gated inwardly rectifying potassium channel KCNH2 (Q12809 whole entry): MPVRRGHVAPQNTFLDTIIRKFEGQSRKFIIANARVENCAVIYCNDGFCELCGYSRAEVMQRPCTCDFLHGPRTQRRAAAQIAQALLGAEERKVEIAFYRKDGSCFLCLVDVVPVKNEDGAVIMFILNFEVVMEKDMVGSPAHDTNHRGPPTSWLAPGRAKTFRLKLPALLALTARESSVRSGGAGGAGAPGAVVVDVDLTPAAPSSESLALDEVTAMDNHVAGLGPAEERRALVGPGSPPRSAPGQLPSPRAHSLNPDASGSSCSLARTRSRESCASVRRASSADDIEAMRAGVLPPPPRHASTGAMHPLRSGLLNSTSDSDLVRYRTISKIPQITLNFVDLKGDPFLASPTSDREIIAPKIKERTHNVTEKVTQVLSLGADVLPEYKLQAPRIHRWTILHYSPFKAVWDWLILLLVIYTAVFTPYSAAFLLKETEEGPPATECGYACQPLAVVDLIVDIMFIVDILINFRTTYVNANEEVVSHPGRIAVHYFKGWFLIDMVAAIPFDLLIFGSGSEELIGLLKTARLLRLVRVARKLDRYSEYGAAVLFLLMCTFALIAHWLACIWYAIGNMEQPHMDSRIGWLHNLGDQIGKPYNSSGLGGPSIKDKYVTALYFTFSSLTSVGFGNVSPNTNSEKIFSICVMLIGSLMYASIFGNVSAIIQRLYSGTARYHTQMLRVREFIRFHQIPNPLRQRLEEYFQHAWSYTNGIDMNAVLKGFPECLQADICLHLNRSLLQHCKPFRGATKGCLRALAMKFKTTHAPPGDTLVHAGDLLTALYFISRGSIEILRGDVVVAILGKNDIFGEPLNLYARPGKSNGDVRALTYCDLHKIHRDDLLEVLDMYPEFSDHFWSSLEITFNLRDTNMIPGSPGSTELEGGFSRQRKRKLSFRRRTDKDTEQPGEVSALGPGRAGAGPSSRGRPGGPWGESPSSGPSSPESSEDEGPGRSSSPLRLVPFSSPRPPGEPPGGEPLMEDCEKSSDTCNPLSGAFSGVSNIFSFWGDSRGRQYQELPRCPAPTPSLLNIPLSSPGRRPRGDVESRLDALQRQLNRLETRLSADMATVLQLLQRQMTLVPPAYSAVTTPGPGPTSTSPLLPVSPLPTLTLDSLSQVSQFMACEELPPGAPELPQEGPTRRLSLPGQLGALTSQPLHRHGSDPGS

Structure (SMILES)	clearance [1] [mL/min/kg]	bioavailability [5] [%]	IC50 [8]	also measured
CCN(CC)c1ccc(NC(=O)c2c(-c3c(Cl)cccc3Cl)noc2C)cc1	61.7			
CCN(CC)c1ccc(NC(=O)C2(N(C)C(=O)OCC(C)C)CCc3cccc(OC)c3C2)cc1 (racemic)	21.7	19		IC50 [2]: 6.1 µM; IC50 [3]: > 33 µM; IC50 [4]: > 33 µM; IC50 [6]: > 33 µM; IC50 [7]: > 33 µM
CCN(CC)c1ccc(NC(=O)C2CCc3ccccc3C2)cc1 (racemic)			2.7 µM (antagonist)	
CCN(CC)c1ccc(NC(=O)C2(NC(=O)OCC(C)C)CCc3ccccc3C2)cc1 (racemic)			0.011 µM (antagonist)	
CCN(CC)c1ccc(NC(=O)C2(NC(=O)OCC(C)C)CCc3cccc(Cl)c3C2)cc1 (racemic)		3.8	0.002 µM (antagonist)	
CCN(CC)c1ccc(NC(=O)C2(NC(=O)OC(C)(C)C)CCc3ccccc3C2)cc1 (racemic)			0.12 µM (antagonist)	
